Reference: US20250326748A1, “COMPOUNDS AND METHODS FOR MODULATING SPLICING” (REMIX THERAPEUTICS INC., priority 2022, published 2025)
Where two headings read alike, the source gives them in different places.

How the values were obtained:
[1] = test system: K562 cells; experiment: Cell viability, Cell Titer Glo 2.0 assay, K562; conditions: 72 hours
Experimental: Compounds described herein were screened for toxicity in K562 (human chronic myelogenous leukemia) and SH-SY5Y (human neuroblastoma) cells using a Cell Titer Glo 2.0 assay.
• Promega CellTiter-Glo® 2.0 Cell Viability Assay (cat #G9241) • Corning 384-well TC-treated microplates (cat #3570)
Cells were plated at 500 cells/well (K562 cells) in 45 μL of IMDM supplemented with 10% FBS in a 384-well opaque plate. Wells containing only medium were used as a blank control. Test compounds (e.g., compounds of Formula (I) or (II)) were first serially diluted in DMSO then diluted 1:100 with IMDM+10% FBS. The final concentration of DMSO was 0.1% in each well. The cells were incubated for 72 hours at 37° C. and 5% CO2 before assaying with Cell Titer Glo 2.0 reagent.

[2] = test system: MYB mRNA; experiment: Splicing RT-qPCR assay, MYB canonical (CJ) and alternative (AJ) junction mRNA; type: cell-based, human; conditions: Homo sapiens; for IC50: canonical junction mRNA; for AC50: alternative junction mRNA, read-out: MYB AJ (AC50, increase in AJ mRNA)
Summary of the method: (§1)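 Cmpd 24 h, 37 °C/5% CO2; 11-pt 3x serial dilution from 10 uM final; DMSO max 0.25%. Cells: A673 (DMEM/10% FBS, pre-adhered 24 h) or K562 (IMDM/10% FBS). Lyse, DNase I, then 1-step RT-qPCR for CJ and AJ; housekeeping-normalized.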

[3] = test system: SMN2 mRNA; experiment: Splicing RT-qPCR panel, SMN2 canonical junction (CJ) mRNA; type: cell-based, human; conditions: Homo sapiens, read-out: SMN2 CJ (decrease in CJ mRNA levels, IC50)
Summary of the method: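 A673 cells (DMEM, 10% FBS) or K562 cells (IMDM, 10% FBS) treated 24 h at 37 °C with an 11-point 3-fold dilution, top 10 uM, DMSO ≤0.25%. Canonical-junction mRNA quantified in lysates by RT-qPCR, normalised to GAPDH, GUSB or PPIA and to DMSO (2^−ΔΔCt), then converted to % response.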

[4] = test system: HTT mRNA; experiment: Splicing RT-qPCR assay, HTT canonical (CJ) and alternative (AJ) junction mRNA; type: cell-based, human; conditions: Homo sapiens; for IC50: canonical junction mRNA; for AC50: alternative junction mRNA, read-out: HTT AJ (AC50, increase in AJ mRNA)
Summary of the method: as §1

[5] = qPCR panel, read-out: MYB CJ (decrease in CJ mRNA levels, IC50)
[6] = RT-qPCR, A673 or K562 cells, 24 hours treatment
[7] = RT-qPCR, A673 or K562 cells, 24 hours treatment, read-out: MYB CJ (IC50, decrease in CJ mRNA)
[8] = 24 h, RT-qPCR, A673 or K562 cells, 24 hours treatment, read-out: HTT CJ (IC50, decrease in CJ mRNA)
[9] = qPCR panel, read-out: HTT CJ (decrease in CJ mRNA levels, IC50)

Row | Structure (SMILES) | IC50 [2, 5] [nM] | IC50 [2, 7] [nM] | IC50 [3] [nM] | IC50 [4, 8] [nM] | IC50 [4, 9] [nM] | Effect on Cell Viability, K562 [1] | AC50 [2, 6] [nM] | AC50 [4, 6] [nM]
1 | Cn1cc2cc(-c3ccc4cc(N5CC[C@H](NC(C)(C)C)C5)cnc4n3)c(O)cc2n1 (single isomer, unassigned) [Compound 200] | 100 to 1000 | 100 to 1000 | < 100 | 1000 to 10000 | 1000 to 10000 | B (100-1000 nM) | 100 to 1000 | 1000 to 10000
2 | Cn1cc2cc(-c3cnc4nc(N5CCNCC5)cc(Cl)c4c3)cc(F)c2n1 [Compound 101, 4-chloro-6-(7-fluoro-2-methyl-2H-indazol-5-yl)-2-(piperazin-1-yl)-1,8-naphthyridine] | 100 to 1000 | 100 to 1000 | < 100 | 1000 to 10000 | 1000 to 10000 | B (100-1000 nM) | < 100 | 1000 to 10000
3 | Cc1c(O)c(-c2ncc3cc(N4CC[C@H](N)C4)cnc3n2)cc2cn(C)nc12 [Compound 160, (S)-5-(6-(3-aminopyrrolidin-1-yl)pyrido[2,3-d]pyrimidin-2-yl)-2,7-dimethyl-2H-indazol-6-ol 2,2,2-trifluoroacetate] | < 100 | < 100 | < 100 | 100 to 1000 | 100 to 1000 | B (100-1000 nM) | < 100 | 100 to 1000
4 | CNC1CCN(c2cnc3nc(-c4cc5cn(C)nc5c(C)c4O)nc(OC)c3c2)C1 (stereo not shown) [Compound 161, 5-{4-methoxy-6-[3-(methylamino)pyrrolidin-1-yl]pyrido[2,3-d]pyrimidin-2-yl}-2,7-dimethylindazol-6-ol] | < 100 | < 100 | < 100 | 100 to 1000 | 100 to 1000 |  | < 100 | 100 to 1000
5 | COc1nc(-c2cc3cn(C)nc3c(C)c2O)nc2ncc(N3CCNCC3)cc12 [Compound 162, 5-[4-methoxy-6-(piperazin-1-yl)pyrido[2,3-d]pyrimidin-2-yl]-2,7-dimethylindazol-6-ol] | < 100 | < 100 | < 100 | 100 to 1000 | 100 to 1000 |  | < 100 | 100 to 1000
6 | COc1nc(-c2cc3cn(C)nc3c(C)c2O)nc2ncc(N3CCC(N(C)C)CC3)cc12 [Compound 163, 5-{6-[4-(dimethylamino)piperidin-1-yl]-4-methoxypyrido[2,3-d]pyrimidin-2-yl}-2,7-dimethylindazol-6-ol] | 100 to 1000 | 100 to 1000 | < 100 | 1000 to 10000 | 1000 to 10000 | B (100-1000 nM) | 100 to 1000 | > 10000
7 | Cn1cc2cc(-c3cnc4cc(N5CCC(NC6CC6)C5)ccc4n3)c(O)c(F)c2n1 (stereo not shown) [Compound 175, 5-[6-[3-(cyclopropylamino)pyrrolidin-1-yl]quinoxalin-2-yl]-7-fluoro-2-methyl-indazol-6-ol] | < 100 | < 100 | < 100 | < 100 | < 100 | A (<100 nM) | < 100 | < 100
8 | Cn1cc2cc(-c3cnc4cc(N5CC[C@H](NC6CC6)C5)ccc4n3)c(O)c(F)c2n1 [Compound 176, 5-[6-[(3S)-3-(cyclopropylamino)318quinoxaline-1-yl]318quinoxaline-2-yl]-7-fluoro-2-methyl-indazol-6-ol] | < 100 | < 100 | < 100 | < 100 | < 100 | A (<100 nM) | < 100 | < 100
9 | Cn1cc2cc(-c3cnc4cc(N5CC[C@@H](NC6CC6)C5)ccc4n3)c(O)c(F)c2n1 [Compound 177, 5-[6-[(3R)-3-(cyclopropylamino)318quinoxaline-1-yl]318quinoxaline-2-yl]-7-fluoro-2-methyl-indazol-6-ol] | < 100 | < 100 | < 100 | < 100 | < 100 | A (<100 nM) | < 100 | < 100
10 | Cn1cc2cc(-c3cnc4nc(N5CCC(NC6CC6)C5)ccc4n3)c(O)c(F)c2n1 (stereo not shown) [Compound 178, 5-[6-[3-(cyclopropylamino)pyrrolidin-1-yl]pyrido[2,3-b]pyrazin-2-yl]-7-fluoro-2-methyl-indazol-6-ol] | < 100 | < 100 | < 100 | < 100 | < 100 | B (100-1000 nM) | 100 to 1000 | 100 to 1000
11 | CNC1CCN(c2cnc3nc(-c4cc5cn(C)nc5c(C)c4O)cc(Cl)c3n2)C1 (stereo not shown) [Compound 193, 5-{8-chloro-2-[3-(methylamino)355pyrrolidine-1-yl]pyrido[2,3-b]pyrazin-6-yl}-2,7-dimethylindazol-6-ol] | < 100 | < 100 | < 100 | 100 to 1000 | 100 to 1000 |  | < 100 | 100 to 1000
12 | CNC1CCN(c2cnc3nc(-c4cc5cn(C)nc5c(C)c4O)cc(OC)c3n2)C1 (stereo not shown) [Compound 194, 5-{8-methoxy-2-[3-(methylamino)360pyrrolidine-1-yl]pyrido[2,3-b]pyrazin-6-yl}-2,7-dimethylindazol-6-ol] | 1000 to 10000 | 1000 to 10000 | 100 to 1000 | 1000 to 10000 | 1000 to 10000 |  | 1000 to 10000 | > 10000
13 | Cn1cc2cc(-c3ccc4cc(N5CC[C@@H](NC(C)(C)C)C5)cnc4n3)c(O)cc2n1 [Compound 199] | 1000 to 10000 | 1000 to 10000 | 100 to 1000 | 1000 to 10000 | 1000 to 10000 |  | 1000 to 10000 | 1000 to 10000
14 | Cc1cn2nc(-c3ccc4cc(N(C)C5CCNCC5)cnc4n3)cc(C)c2n1 [Compound 205, 7-{2,8-dimethylimidazo[1,2-b]pyridazin-6-yl}-N-methyl-N-(piperidin-4-yl)-1,8-naphthyridin-3-amine] | 1000 to 10000 | 1000 to 10000 | 100 to 1000 | > 10000 | > 10000 |  | 1000 to 10000 | > 10000

More lines, main results first:

Row | IC50 [2, 5] [nM] | IC50 [2, 7] [nM] | IC50 [3] [nM] | IC50 [4, 8] [nM] | IC50 [4, 9] [nM] | Structure (SMILES) | Effect on Cell Viability, K562 [1] | AC50 [2, 6] [nM] | AC50 [4, 6] [nM]
15 | < 100 | < 100 | < 100 | 100 to 1000 | 100 to 1000 | CNC1CCN(c2cnc3nc(-c4cc(F)c5nc(C)cn5c4)ccc3c2)C1 (stereo not shown) [Compound 100, 1-(7-{8-fluoro-2-methylimidazo[1,2-a]pyridin-6-yl}-1,8-naphthyridin-3-yl)-N-methylpyrrolidin-3-amine] | B (100-1000 nM) | < 100 | 100 to 1000
16 | < 100 | < 100 | < 100 | 100 to 1000 | 100 to 1000 | Cn1cc2cc(-c3cc(Cl)c4cc(N5CCNCC5)cnc4n3)c(O)cc2n1 [Compound 102, 5-[4-chloro-6-(piperazin-1-yl)-1,8-naphthyridin-2-yl]-2-methylindazol-6-ol] | B (100-1000 nM) | < 100 | 100 to 1000
17 | < 100 | < 100 | < 100 | 100 to 1000 | 100 to 1000 | Cn1cc2cc(-c3cc(Cl)c4cc(N5CCNCC5)cnc4n3)cc(F)c2n1 [Compound 103] | B (100-1000 nM) | < 100 | 1000 to 10000
18 | < 100 | < 100 | < 100 | 100 to 1000 | 100 to 1000 | Cc1c(O)c(-c2cc(Cl)c3cc(N4CCNCC4)cnc3n2)cc2cn(C)nc12 [Compound 154, 5-[4-chloro-6-(piperazin-1-yl)-1,8-naphthyridin-2-yl]-2,7-dimethylindazol-6-ol] | A (<100 nM) | < 100 | 100 to 1000
19 | < 100 | < 100 | < 100 | < 100 | < 100 | Cn1cc2cc(-c3cc(Cl)c4cc(N5CCNCC5)cnc4n3)c(O)c(F)c2n1 [Compound 155, 5-[4-chloro-6-(piperazin-1-yl)-1,8-naphthyridin-2-yl]-7-fluoro-2-methylindazol-6-ol] | A (<100 nM) | < 100 | < 100
20 | < 100 | < 100 | < 100 | < 100 | < 100 | Cc1c(O)c(-c2ncc3cc(N4CC[C@@H](N)C4)cnc3n2)cc2cn(C)nc12 [Compound 159, (R)-5-(6-(3-aminopyrrolidin-1-yl)pyrido[2,3-d]pyrimidin-2-yl)-2,7-dimethyl-2H-indazol-6-ol 2,2,2-trifluoroacetate] | B (100-1000 nM) | < 100 | 100 to 1000
